Laboratory results taken from patent US20180201592A1, “2-AMINO-1,3,4-THIADIAZINE AND 2-AMINO-1,3,4-OXADIAZINE BASED ANTIFUNGAL AGENTS” (F2G Limited, priority 2015, published 2018).

Legend:
Details in all cases: banded MIC grade
[1] = tested on: Aspergillus fumigatus; assay: Minimum inhibitory concentration, YAG medium; format: cell-based
In short: (§1)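 Spores from 5-day Sabouraud agar cultures were suspended in YAG medium (1% glucose, 1% ammonium chloride, 0.5% yeast extract) at 1-2×10^4 cfu/mL and exposed to doubling dilutions of compound (50-0.05 mg/L) for 24 hrs at 35° C. MIC was the lowest concentration giving >70% growth inhibition by OD485 versus drug-free control.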

[2] = tested on: A. niger; assay: Minimum inhibitory concentration, RPMI medium; format: cell-based
In short: (§2)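 Broth microdilution in RPMI 1640 medium using doubling dilutions in water prepared from a 5 mg/mL DMSO stock. Plates incubated 24-48 hrs at 35° C; growth read as optical density at 485 nm.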

[3] = tested on: A. terreus; assay: Minimum inhibitory concentration, RPMI medium; format: cell-based
In short: as §2

[4] = tested on: C. parapsilosis; assay: Minimum inhibitory concentration, RPMI medium; format: cell-based
In short: as §2

[5] = tested on: C. glabrata; assay: Minimum inhibitory concentration, RPMI medium; format: cell-based
In short: as §2

[6] = tested on: A. terreus 49; assay: Minimum inhibitory concentration, RPMI medium; format: cell-based
In short: as §2

[7] = tested on: C. krusei; assay: Minimum inhibitory concentration, RPMI medium; format: cell-based
In short: as §2

[8] = tested on: A. flavus; assay: Minimum inhibitory concentration, RPMI medium; format: cell-based
In short: as §2

[9] = tested on: C. albicans; assay: Minimum inhibitory concentration, RPMI medium; format: cell-based
In short: as §2

[10] = tested on: C. tropicalis; assay: Minimum inhibitory concentration, RPMI medium; format: cell-based
In short: as §2

[11] = tested on: A. fumigatus 210; assay: Minimum inhibitory concentration, RPMI medium; format: cell-based
Protocol: (§3) Between 1 and 5 mgs of compound were accurately weighed out into a sterile Eppendorf tube. The compound was dissolved in DMSO to give a solution containing 5 mg/mL. Tubes were stored at −20° C. until required.
(§4) On the day of testing thawed solutions were vortex mixed to ensure homogeneity. 30 μL of solution was removed and added to 570 μL of sterile water in a separate sterile Eppendorf. The thoroughly mixed solution was used to prepare a series of doubling dilutions in water, in a deep well plate. Thirteen replicate plates were prepared using a Minitrak by aspirating 20 μL from each well into eleven clear polystyrene 96 well plates.
(§5) Assays were also performed in RPMI medium (Roswell Park Memorial Media 1640). To perform MIC tests in this medium, dilutions of compounds are prepared in microtitre plates as described above. Fungal strains to be tested are grown and harvested in an identical manner to that described above, and each organism suspension was diluted in RPMI medium, typically containing 2% glucose and 0.135 M MOPS buffer (pH 7.0) to 0.5-2×10^4cfu/mL, rather than in YAG medium. 80 μL of an organism suspension was added to each well of the plate containing drug dilutions.
(§6) This produced MIC plates with a drug range 50-0.05 mg/L and organism inocula of 1-2×10^4 cfu/mL. All plates were incubated for 24-48 hrs at 35° C. Growth was assessed by monitoring the optical density at 485 nm for each well. The MIC of a compound is the lowest drug concentration that inhibits growth of an organism by >80% compared with a drug free control. The following organisms were tested: C. albicans, C. parapsilosis, C. tropicalis, C. glabrata, C. krusei, A. niger, A. fumigatus, A. terreus, A. flavus, A. terreus 49, and A. fumigatus 210.

[12] = tested on: A. fumigatus; assay: Minimum inhibitory concentration, RPMI medium; format: cell-based
Protocol: as §3, §4, §5, §6

[13] = tested on: A. fumigatus 210; assay: Minimum inhibitory concentration, YAG medium; format: cell-based, Aspergillus fumigatus
In short: as §1

[14] = tested on: A. terreus 49; assay: Minimum inhibitory concentration, YAG medium; format: cell-based, Aspergillus terreus
In short: (§7)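 Compound in DMSO (5 mg/mL stock), diluted in water and doubling-diluted; Aspergillus spores grown in YAG medium 24 hrs at 35° C. Growth read as optical density at 485 nm; MIC given in mg/L.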

[15] = tested on: Aspergillus niger; assay: Minimum inhibitory concentration, YAG medium; format: cell-based
In short: as §7

[16] = tested on: Aspergillus flavus; assay: Minimum inhibitory concentration, YAG medium; format: cell-based
In short: as §7

[17] = tested on: Aspergillus terreus; assay: Minimum inhibitory concentration, YAG medium; format: cell-based
In short: as §7

SMILES | MIC grade, A. FUMIGATUS, YAG media [1] | MIC grade, A. NIGER, RPMI media [2] | MIC grade, A. TERREUS, RPMI media [3] | MIC grade, C. PARAPSILOSIS, RPMI media [4] | MIC grade, C. GLABRATA, RPMI media [5] | MIC grade, A. TERREUS 49, RPMI media [6] | MIC grade, C. KRUSEI, RPMI media [7] | MIC grade, A. FLAVUS, RPMI media [8] | MIC grade, C. ALBICANS, RPMI media [9] | MIC grade, C. TROPICALIS, RPMI media [10] | MIC grade, A. FUMIGATUS 210, RPMI media [11] | MIC grade, A. FUMIGATUS, RPMI media [12] | MIC grade, A. FUMIGATUS 210, YAG media [13] | MIC grade, A. TERREUS 49, YAG media [14] | MIC grade, A. NIGER, YAG media [15] | MIC grade, A. FLAVUS, YAG media [16] | MIC grade, A. TERREUS, YAG media [17]
NC1=NN=C(CCOCCOc2ccccc2)CS1 | 4 (4: <0.2 mg/L) | 3 (3: 1-5 mg/L) | 4 (4: <1 mg/L) | 4 (4: <1 mg/L) | 2 (2: 5-20 mg/L) | 4 (4: <1 mg/L) | 4 (4: <1 mg/L) | 3 (3: 1-5 mg/L) | 3 (3: 1-5 mg/L) | 3 (3: 1-5 mg/L) | 3 (3: 1-5 mg/L) | 3 (3: 1-5 mg/L) | 4 (4: <0.2 mg/L) | 4 (4: <0.2 mg/L) | 4 (4: <0.2 mg/L) | 4 (4: <0.2 mg/L) | 4 (4: <0.2 mg/L)
NC1=NN=C(CCCCOCc2ccccc2CCc2ccccc2)CS1 | 1 (1: ≥5 mg/L) | 1 (1: ≥20 mg/L) | 2 (2: 5-20 mg/L) | 2 (2: 5-20 mg/L) | 1 (1: ≥20 mg/L) | 2 (2: 5-20 mg/L) | 2 (2: 5-20 mg/L) | 1 (1: ≥20 mg/L) | 2 (2: 5-20 mg/L) | 2 (2: 5-20 mg/L) | 1 (1: ≥20 mg/L) | 1 (1: ≥20 mg/L) | 1 (1: ≥5 mg/L) | 1 (1: ≥5 mg/L) | 1 (1: ≥5 mg/L) | 2 (2: 1-5 mg/L) | 2 (2: 1-5 mg/L)
NC1=NN=C(CCCCOCc2ccccc2C(F)(F)F)CS1 | 3 (3: 0.2-1 mg/L) | 1 (1: ≥20 mg/L) | 1 (1: ≥20 mg/L) | 1 (1: ≥20 mg/L) | 1 (1: ≥20 mg/L) | 1 (1: ≥20 mg/L) | 2 (2: 5-20 mg/L) | 1 (1: ≥20 mg/L) | 2 (2: 5-20 mg/L) | 2 (2: 5-20 mg/L) | 1 (1: ≥20 mg/L) | 1 (1: ≥20 mg/L) | 2 (2: 1-5 mg/L) | 2 (2: 1-5 mg/L) | 3 (3: 0.2-1 mg/L) | 2 (2: 1-5 mg/L) | 2 (2: 1-5 mg/L)
NC1=NN=C(CCCCOCc2c(F)cccc2Cl)CS1 | 3 (3: 0.2-1 mg/L) | 2 (2: 5-20 mg/L) | 2 (2: 5-20 mg/L) | 2 (2: 5-20 mg/L) | 2 (2: 5-20 mg/L) | 2 (2: 5-20 mg/L) | 3 (3: 1-5 mg/L) | 2 (2: 5-20 mg/L) | 2 (2: 5-20 mg/L) | 2 (2: 5-20 mg/L) | 1 (1: ≥20 mg/L) | 2 (2: 5-20 mg/L) | 3 (3: 0.2-1 mg/L) | 3 (3: 0.2-1 mg/L) | 3 (3: 0.2-1 mg/L) | 3 (3: 0.2-1 mg/L) | 3 (3: 0.2-1 mg/L)
NC1=NN=C(CCCCOCc2ccccc2C2CC2)CS1 | 2 (2: 1-5 mg/L) | 1 (1: ≥20 mg/L) | 2 (2: 5-20 mg/L) | 3 (3: 1-5 mg/L) | 2 (2: 5-20 mg/L) | 2 (2: 5-20 mg/L) | 2 (2: 5-20 mg/L) | 1 (1: ≥20 mg/L) | 3 (3: 1-5 mg/L) | 3 (3: 1-5 mg/L) | 1 (1: ≥20 mg/L) | 2 (2: 5-20 mg/L) | 2 (2: 1-5 mg/L) | 2 (2: 1-5 mg/L) | 2 (2: 1-5 mg/L) | 3 (3: 0.2-1 mg/L) | 2 (2: 1-5 mg/L)
NC1=NN=C(CCCCOCc2cc(F)ccc2F)CS1 | 4 (4: <0.2 mg/L) | 2 (2: 5-20 mg/L) | 2 (2: 5-20 mg/L) | 3 (3: 1-5 mg/L) | 2 (2: 5-20 mg/L) | 2 (2: 5-20 mg/L) | 3 (3: 1-5 mg/L) | 2 (2: 5-20 mg/L) | 3 (3: 1-5 mg/L) | 3 (3: 1-5 mg/L) | 2 (2: 5-20 mg/L) | 2 (2: 5-20 mg/L) | 4 (4: <0.2 mg/L) | 4 (4: <0.2 mg/L) | 4 (4: <0.2 mg/L) | 4 (4: <0.2 mg/L) | 4 (4: <0.2 mg/L)
NC1=NN=C(CCCCOCc2cc(Cl)cc(Cl)c2)CS1 | 3 (3: 0.2-1 mg/L) | 2 (2: 5-20 mg/L) | 2 (2: 5-20 mg/L) | 3 (3: 1-5 mg/L) | 2 (2: 5-20 mg/L) | 2 (2: 5-20 mg/L) | 2 (2: 5-20 mg/L) | 2 (2: 5-20 mg/L) | 2 (2: 5-20 mg/L) | 2 (2: 5-20 mg/L) | 1 (1: ≥20 mg/L) | 2 (2: 5-20 mg/L) | 2 (2: 1-5 mg/L) | 3 (3: 0.2-1 mg/L) | 3 (3: 0.2-1 mg/L) | 4 (4: <0.2 mg/L) | 3 (3: 0.2-1 mg/L)
NC1=NN=C(CCCCOCc2ccc(Cl)cc2F)CS1 | 4 (4: <0.2 mg/L) | 3 (3: 1-5 mg/L) | 3 (3: 1-5 mg/L) | 4 (4: <1 mg/L) | 3 (3: 1-5 mg/L) | 3 (3: 1-5 mg/L) | 4 (4: <1 mg/L) | 4 (4: <1 mg/L) | 4 (4: <1 mg/L) | 4 (4: <1 mg/L) | 2 (2: 5-20 mg/L) | 2 (2: 5-20 mg/L) | 4 (4: <0.2 mg/L) | 4 (4: <0.2 mg/L) | 3 (3: 0.2-1 mg/L) | 4 (4: <0.2 mg/L) | 4 (4: <0.2 mg/L)
